Measured values: ChEMBL document CHEMBL1795321, “Synthesis and in vitro evaluation of ambrisentan analogues as potential endothelin receptor antagonists” (Bioorg Med Chem Lett, 2011)
Active and inactive are the calls of the source. The rule behind the calls is not given here.

Biological target: T1, Endothelin receptor type A (Oryctolagus cuniculus) (UniProt A5A8K3)
T1 sequence (whole entry): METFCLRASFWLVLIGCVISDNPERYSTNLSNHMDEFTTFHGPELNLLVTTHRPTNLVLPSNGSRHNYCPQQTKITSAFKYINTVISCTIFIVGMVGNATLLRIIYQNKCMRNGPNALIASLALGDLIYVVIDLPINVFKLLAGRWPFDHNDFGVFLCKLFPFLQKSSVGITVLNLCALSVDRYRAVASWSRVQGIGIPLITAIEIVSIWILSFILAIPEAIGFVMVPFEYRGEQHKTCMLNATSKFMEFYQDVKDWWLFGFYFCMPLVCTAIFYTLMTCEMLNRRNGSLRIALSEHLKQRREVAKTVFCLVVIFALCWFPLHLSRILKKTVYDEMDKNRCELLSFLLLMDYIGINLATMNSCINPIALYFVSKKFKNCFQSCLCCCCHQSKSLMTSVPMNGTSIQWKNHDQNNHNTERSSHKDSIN
Assay: Inhibition of endothelin A receptor in New Zealand white rabbit aortic rings assessed as inhibition of endothelin-1-induced vascular contraction at 10^-6 M

SMILES	inhibition
Cc1cc(C)nc(OC(C(=O)O)C(Cc2ccccc2)(c2ccccc2)c2ccccc2)n1 (stereo not drawn)	11.8%
COc1ccc(C(=O)OCC(c2ccccc2)(c2ccccc2)C(Oc2nc(C)cc(C)n2)C(=O)O)cc1 (stereo not drawn)	inactive
Cc1cc(C)nc(OC(C(=O)O)C(CO)(c2ccccc2)c2ccccc2)n1 (stereo not drawn)	23.2%
COCC(c1ccccc1)(c1ccccc1)C(Oc1nc(C)cc(C)n1)C(=O)O (stereo not drawn)	inactive
Cc1cc(C)nc(OC(C(=O)O)C(COC(=O)CC(C)C)(c2ccccc2)c2ccccc2)n1 (stereo not drawn)	21.8%
CCCOCC(c1ccccc1)(c1ccccc1)C(Oc1nc(C)cc(C)n1)C(=O)O (stereo not drawn)	inactive
Cc1cc(C)nc(OC(C(=O)O)C(COC(=O)OC(C)C)(c2ccccc2)c2ccccc2)n1 (stereo not drawn)	22%
Cc1cc(C)nc(OC(C(=O)O)C(COC(=O)OCC(C)C)(c2ccccc2)c2ccccc2)n1 (stereo not drawn)	13.7%
CCCCC(=O)OCC(c1ccccc1)(c1ccccc1)C(Oc1nc(C)cc(C)n1)C(=O)O (stereo not drawn)	5.88%
COc1ccccc1Oc1c(NS(=O)(=O)c2ccc(C(C)(C)C)cc2)nc(-c2ncccn2)nc1OCCO	22.5%
Cc1cc(C)nc(OC(C(=O)O)C(COC(=O)c2ccccc2)(c2ccccc2)c2ccccc2)n1 (stereo not drawn)	8.09%
Cc1cccc(C(=O)OCC(c2ccccc2)(c2ccccc2)C(Oc2nc(C)cc(C)n2)C(=O)O)c1 (stereo not drawn)	inactive
CCOCC(c1ccccc1)(c1ccccc1)C(Oc1nc(C)cc(C)n1)C(=O)O (stereo not drawn)	20.6%
Cc1cc(C)nc(OC(C(=O)O)C(COC(=O)C(C)(C)C)(c2ccccc2)c2ccccc2)n1 (stereo not drawn)	inactive
CCC(C)(C)C(=O)OCC(c1ccccc1)(c1ccccc1)C(Oc1nc(C)cc(C)n1)C(=O)O (stereo not drawn)	inactive
Cc1ccc(S(=O)(=O)OCC(c2ccccc2)(c2ccccc2)C(Oc2nc(C)cc(C)n2)C(=O)O)cc1 (stereo not drawn)	inactive
C=CCOCC(c1ccccc1)(c1ccccc1)C(Oc1nc(C)cc(C)n1)C(=O)O (stereo not drawn)	23.4%
CC(=O)OCC(c1ccccc1)(c1ccccc1)C(Oc1nc(C)cc(C)n1)C(=O)O (stereo not drawn)	9.64%
Cc1cc(C)nc(OC(C(=O)O)C(COC(=O)CCc2ccccc2)(c2ccccc2)c2ccccc2)n1 (stereo not drawn)	inactive

SMILES	inhibition
Cc1cc(C)nc(OC(C(=O)OCc2ccccc2)C(CO)(c2ccccc2)c2ccccc2)n1 (stereo not drawn)	inactive
Cc1cc(C)nc(OC(C(=O)O)C(COC(=O)Cc2ccccc2)(c2ccccc2)c2ccccc2)n1 (stereo not drawn)	inactive
CCCCCC(=O)OCC(c1ccccc1)(c1ccccc1)C(Oc1nc(C)cc(C)n1)C(=O)O (stereo not drawn)	inactive
Cc1cc(C)nc(OC(C(=O)O)C(COC(=O)c2ccncc2)(c2ccccc2)c2ccccc2)n1 (stereo not drawn)	13.2%
Cc1cc(C)nc(OC2C(=O)OCC2(c2ccccc2)c2ccccc2)n1 (stereo not drawn)	14.3%
Cc1cc(C)nc(OC(C(=O)O)C(COC(=O)CCCC(=O)O)(c2ccccc2)c2ccccc2)n1 (stereo not drawn)	3.47%
Cc1cc(C)nc(OC(C(=O)O)C(COC(=O)c2cccnc2)(c2ccccc2)c2ccccc2)n1 (stereo not drawn)	7.82%
CCCCOCC(c1ccccc1)(c1ccccc1)C(Oc1nc(C)cc(C)n1)C(=O)O (stereo not drawn)	15.1%
CCC(=O)OCC(c1ccccc1)(c1ccccc1)C(Oc1nc(C)cc(C)n1)C(=O)O (stereo not drawn)	21.7%
Cc1cc(C)nc(OC(C(=O)O)C(COCc2ccccc2)(c2ccccc2)c2ccccc2)n1 (stereo not drawn)	inactive
Cc1cc(C)nc(OC(C(=O)O)C(COC(=O)OC(C)(C)C)(c2ccccc2)c2ccccc2)n1 (stereo not drawn)	inactive
COC(c1ccccc1)(c1ccccc1)[C@H](Oc1nc(C)cc(C)n1)C(=O)O	43.2%
CCCCCCCC(=O)OCC(c1ccccc1)(c1ccccc1)C(Oc1nc(C)cc(C)n1)C(=O)O (stereo not drawn)	5.61%
CCCC(=O)OCC(c1ccccc1)(c1ccccc1)C(Oc1nc(C)cc(C)n1)C(=O)O (stereo not drawn)	1.11%
Cc1cc(C)nc(OC(C(=O)O)C(C#N)(c2ccccc2)c2ccccc2)n1 (racemic)	42.2%
Cc1cc(C)nc(OC(C(=O)O)C(COC(=O)N(C)C)(c2ccccc2)c2ccccc2)n1 (stereo not drawn)	inactive
CCOC(=O)OCC(c1ccccc1)(c1ccccc1)C(Oc1nc(C)cc(C)n1)C(=O)O (stereo not drawn)	15.5%
COC(=O)OCC(c1ccccc1)(c1ccccc1)C(Oc1nc(C)cc(C)n1)C(=O)O (stereo not drawn)	3.4%
Cc1cc(C)nc(OC(C(=O)O)C(COC(=O)CCC(=O)O)(c2ccccc2)c2ccccc2)n1 (stereo not drawn)	inactive
